Reference: PMC11790914, “Chemogenomics for steroid hormone receptors (NR3)” (Communications Chemistry, 2025)
“And” between values parts separate entries of the source, which are not always exact repeats. Identical values can stand only once.

Tests used:
BRPF1 = molecular target: T1, BRPF1 (Homo sapiens, UniProt P55201); assay: Liability panel screening by DSF: BRPF1; assay type: binding; details: DSF, 20 µM, n=2; read-out: Mean ΔTM BRPF1
T1 construct: This panel comprised ten highly ligandable kinases and bromodomains; made in house
T1 sequence (P55201 628-732 limits assumed): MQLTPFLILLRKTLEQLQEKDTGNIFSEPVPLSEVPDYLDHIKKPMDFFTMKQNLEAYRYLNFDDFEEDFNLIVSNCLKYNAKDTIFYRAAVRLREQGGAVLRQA
Method: (§1) Reference ligands are listed in the methods section.
(§2) In-house produced recombinantly expressed proteins[62] of the liability panel targets were diluted in a buffer containing 10 mM HEPES (pH 7.5) and 500 mM NaCl to a concentration of 2 µM. SYPRO Orange (Invitrogen, Carlsbad, California, USA; #S6650) as a fluorescence probe was added at a 1:1000 dilution to the proteins. […] Temperature-dependent unfolding profiles were measured on a QuantStudio™ 5 real-time PCR machine (Thermo Fisher Scientific, Waltham, Massachusetts, USA; #A28140). […] The temperature was increased 3 °C per minute to a maximum temperature of 85 °C. Experiments were run as technical duplicates. […] Data were analyzed with the internal Thermal Shift Software (version 1.4, Thermo Fisher Scientific) using the Boltzmann equitation to determine the inflection point of the transition curve. Differences in melting temperature are given as ∆Tm in K. […]
(§3) scanning fluorimetry (DSF).
(§4) a concentration of 20 µM.

CSNK1D = molecular target: T2, CSNK1D (Homo sapiens, UniProt P48730); assay: Liability panel screening by DSF: CSNK1D; assay type: binding; details: DSF, 20 µM, n=2; read-out: Mean ΔTM CSNK1D
T2 construct: made in house
Method: as §1, §2, §3, §4

HEK293T cells [1] = assay: Cytotoxicity: necrosis induction (red fluorescent dye for permeable plasma membranes); assay type: cell-based; details: 24 h, necrotic cell count normalized to 0.1% DMSO, single replicates;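 also: compounds applied in DMEM high glucose with 0.1% FCS and 0.1% DMSO, necrotic HEK293T cells counted by red staining of cells whose plasma membranes had become permeable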
Method: Cells were incubated with the test compounds at the indicated concentrations solubilized with 0.1% DMSO for 24 h. […] Necrotic cells were detected with a red fluorescent dye that labels cells with permeable plasma membranes after 24 h treatment and the necrotic cell count was normalized to 0.1% DMSO treated cells (n = 4). e NR family selectivity profiling of NR3 CG compound candidates in uniform Gal4-hybrid reporter gene assays for selected NR representing the NR1, NR2, NR4 and NR5 families.
HEK293T cells (German Collection of Microorganisms and Cell Culture GmbH, DSMZ; #ACC305) were cultured in DMEM high glucose, supplemented with 10% fetal calf serum (FCS), sodium pyruvate (1 mM), penicillin (100 µ/mL) and streptomycin (100 µg/mL) at 37 °C and 5% (v/v) CO2, and seeded in pre-coated (10 µg/mL collagen G solution (Merck KgaA; #L7213) for 30 min at 37 °C) 96-well plates (2 × 10^5 cells per well). After 24 h, the cells were treated with the respective NR3 CG compound candidate at the recommended concentration, bexarotene (100 µM) or doxorubicin (30 µM) as positive controls in DMEM high glucose supplemented with 0.1% FCS, penicillin (100 µ/mL), streptomycin (100 µg/mL) and 0.1% DMSO, or 0.1% DMSO alone as an untreated control. Each sample was prepared in at least four biologically independent replicates. […] Before drug administration, after the first medium exchange, 24 h after drug administration, and after fluorescence imaging cell confluence was assessed using the Tecan Spark Cyto, to account for changes in cell confluence due to drug administration and cell handling. Compound effects on cell confluence, apoptosis, metabolic activity and necrosis were normalized to the vehicle control of each biological replicate individually.

CDK2 = molecular target: T3, CDK2 (Homo sapiens, UniProt P24941); assay: Liability panel screening by DSF: CDK2; assay type: binding; details: DSF, 20 µM, n=2; read-out: Mean ΔTM CDK2
T3 construct: made in house
Method: as §1, §2, §3, §4

HEK293T cells [2] = assay: Cytotoxicity: growth-rate (change in confluence over 24 h); details: normalized to 0.1% DMSO control, single replicates (n=1...)
TRIM24 = molecular target: T4, TRIM24 (Homo sapiens, UniProt O15164); assay: Liability panel screening by DSF: TRIM24; assay type: binding; details: DSF, 20 µM, n=2; read-out: Mean ΔTM TRIM24
T4 construct: This panel comprised ten highly ligandable kinases and bromodomains; made in house
T4 sequence (O15164 899-1004 limits assumed): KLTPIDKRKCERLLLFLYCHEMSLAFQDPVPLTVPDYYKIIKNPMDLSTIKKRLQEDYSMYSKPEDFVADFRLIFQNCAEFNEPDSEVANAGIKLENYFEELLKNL
Method: as §1, §2, §3, §4

ABL1 = molecular target: T5, ABL1 (Homo sapiens, UniProt P00519); assay: Liability panel screening by DSF: ABL1; assay type: binding; details: DSF, 20 µM, n=2; read-out: Mean ΔTM ABL1
T5 construct: made in house
Method: as §1, §2, §3, §4

[3] = system: ATF6 activity in Hela ATF6 reporter cells; assay: Endoplasmic reticulum stress assay (ATF6 Renilla luciferase reporter, tunicamycin); assay type: cell-based
Method: After 24 h, cells were incubated with the test compounds solubilized with 0.1% DMSO in the same medium without puromycin. After 4 h incubation, tunicamycin (100 ng/mL) was added. After another 18 h incubation, cells were assayed for renilla luminescence using DualGlo reagent (Promega) on a Tecan SPARK Cyto (Tecan). Test samples were normalized to the 0.1% DMSO control. Each sample was repeated in five biologically independent experiments.

FGFR3 = molecular target: T6, FGFR3 (Homo sapiens, UniProt P22607); assay: Liability panel screening by DSF: FGFR3; assay type: binding; details: DSF, 20 µM, n=2; read-out: Mean ΔTM FGFR3
T6 construct: made in house
Method: as §1, §2, §3, §4

BRD4 = molecular target: T7, BRD4 (Homo sapiens, UniProt O60885); assay: Liability panel screening by DSF: BRD4; assay type: binding; details: DSF, 20 µM, n=2; read-out: Mean ΔTM BRD4
T7 construct: This panel comprised ten highly ligandable kinases and bromodomains; made in house
Method: as §1, §2, §3, §4

AURKA = molecular target: T8, AURKA (Homo sapiens, UniProt O14965); assay: Liability panel screening by DSF: AURKA; assay type: binding; details: DSF, 20 µM, n=2; read-out: Mean ΔTM AURKA
T8 construct: made in house
T8 sequence (O14965 1-403): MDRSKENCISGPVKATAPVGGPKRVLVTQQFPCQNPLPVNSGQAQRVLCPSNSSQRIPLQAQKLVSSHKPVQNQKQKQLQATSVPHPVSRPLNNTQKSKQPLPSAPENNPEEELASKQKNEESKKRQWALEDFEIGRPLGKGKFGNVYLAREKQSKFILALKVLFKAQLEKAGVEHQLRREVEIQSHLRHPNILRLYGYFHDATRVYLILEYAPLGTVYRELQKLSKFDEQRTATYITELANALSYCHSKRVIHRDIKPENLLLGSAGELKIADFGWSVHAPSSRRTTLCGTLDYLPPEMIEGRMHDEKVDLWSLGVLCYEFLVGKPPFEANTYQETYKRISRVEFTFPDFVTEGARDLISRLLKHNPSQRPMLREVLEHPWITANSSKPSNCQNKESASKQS
Method: as §1, §2, §3, §4

MAPK1 = molecular target: T9, MAPK1 (Homo sapiens, UniProt P28482); assay: Liability panel screening by DSF: MAPK1; assay type: binding; details: DSF, 20 µM, n=2; read-out: Mean ΔTM MAPK1
T9 construct: made in house
Method: as §1, §2, §3, §4

HEK293T cells [4] = assay: Cytotoxicity: apoptosis induction (caspase-3/7 DEVD fluorogenic DNA dye); details: HEK293T, 24 h, apoptotic cell count normalized to 0.1% DMSO, single replicates
GSK3B = molecular target: T10, GSK3B (Homo sapiens, UniProt P49841); assay: Liability panel screening by DSF: GSK3B; assay type: binding; details: DSF, 20 µM, n=2; read-out: Mean ΔTM GSK3B
T10 construct: made in house

[5] = system: NF-κB activity in HEK293 NF-κB reporter cells; assay: NF-kB activity assay (GFP reporter, ionomycin/PMA); assay type: cell-based; details: n=3
Method: Fig. 6 Application of the NR3 CG set.
After 24 h, cells were incubated with the test compounds solubilized with 0.1% DMSO in the same medium without puromycin. After 4 h incubation, ionomycin (100 ng/mL) and phorbol-12-myristat-13-acetate (PMA, 10 ng/mL) was added, and the cells were imaged for confluence and GFP expression every 90 min. over 24 h using a Tecan SPARK Cyto (Tecan). The number of GFP expressing cells was normalized to confluence in each sample. Each sample was repeated in three biologically independent experiments.

HEK293T cells [6] = assay: Cytotoxicity: metabolic activity (WST-8 / CCK-8 assay); details: HEK293T, 24 h, WST-8, normalized to 0.1% DMSO, single replicates

T5 sequence (P00519 whole entry, species assumed): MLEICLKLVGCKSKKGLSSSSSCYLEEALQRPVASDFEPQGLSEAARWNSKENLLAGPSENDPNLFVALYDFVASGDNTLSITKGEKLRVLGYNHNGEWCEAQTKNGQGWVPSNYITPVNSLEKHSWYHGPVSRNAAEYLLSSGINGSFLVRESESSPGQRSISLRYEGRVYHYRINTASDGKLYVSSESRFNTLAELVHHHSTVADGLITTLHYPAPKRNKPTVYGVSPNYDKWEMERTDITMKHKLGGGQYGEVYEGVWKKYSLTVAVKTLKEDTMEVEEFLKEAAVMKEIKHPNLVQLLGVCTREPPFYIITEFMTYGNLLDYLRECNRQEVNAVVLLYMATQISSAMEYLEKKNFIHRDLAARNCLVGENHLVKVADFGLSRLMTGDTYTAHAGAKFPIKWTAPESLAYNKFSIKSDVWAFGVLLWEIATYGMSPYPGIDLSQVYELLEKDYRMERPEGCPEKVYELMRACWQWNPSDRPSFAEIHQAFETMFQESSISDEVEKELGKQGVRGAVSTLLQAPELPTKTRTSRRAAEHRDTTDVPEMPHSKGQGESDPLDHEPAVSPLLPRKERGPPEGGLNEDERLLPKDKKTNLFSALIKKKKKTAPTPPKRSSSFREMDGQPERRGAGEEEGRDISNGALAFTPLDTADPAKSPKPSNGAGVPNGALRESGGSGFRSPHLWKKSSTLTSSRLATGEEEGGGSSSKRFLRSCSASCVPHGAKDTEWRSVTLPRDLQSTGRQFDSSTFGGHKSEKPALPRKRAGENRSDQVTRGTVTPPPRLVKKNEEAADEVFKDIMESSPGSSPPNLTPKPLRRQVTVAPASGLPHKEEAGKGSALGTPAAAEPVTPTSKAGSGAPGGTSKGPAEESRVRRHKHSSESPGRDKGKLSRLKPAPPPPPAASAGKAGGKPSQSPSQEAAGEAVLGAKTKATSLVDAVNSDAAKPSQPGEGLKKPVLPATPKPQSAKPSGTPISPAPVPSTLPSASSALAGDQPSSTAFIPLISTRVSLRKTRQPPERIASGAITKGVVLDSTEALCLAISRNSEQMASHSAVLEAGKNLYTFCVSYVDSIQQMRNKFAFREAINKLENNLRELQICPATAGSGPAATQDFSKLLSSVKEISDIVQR
T2 sequence (P48730 whole entry, species assumed): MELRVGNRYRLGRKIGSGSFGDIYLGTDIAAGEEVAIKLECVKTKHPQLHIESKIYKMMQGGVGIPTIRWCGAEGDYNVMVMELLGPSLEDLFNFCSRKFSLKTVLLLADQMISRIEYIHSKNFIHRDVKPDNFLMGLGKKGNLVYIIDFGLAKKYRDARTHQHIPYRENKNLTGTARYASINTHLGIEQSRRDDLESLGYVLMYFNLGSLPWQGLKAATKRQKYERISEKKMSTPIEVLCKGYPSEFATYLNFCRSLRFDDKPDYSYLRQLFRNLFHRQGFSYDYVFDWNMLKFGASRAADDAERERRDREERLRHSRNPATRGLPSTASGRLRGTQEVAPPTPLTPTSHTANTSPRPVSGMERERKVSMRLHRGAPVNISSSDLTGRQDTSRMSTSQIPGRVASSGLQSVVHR
T10 sequence (P49841 whole entry, species assumed): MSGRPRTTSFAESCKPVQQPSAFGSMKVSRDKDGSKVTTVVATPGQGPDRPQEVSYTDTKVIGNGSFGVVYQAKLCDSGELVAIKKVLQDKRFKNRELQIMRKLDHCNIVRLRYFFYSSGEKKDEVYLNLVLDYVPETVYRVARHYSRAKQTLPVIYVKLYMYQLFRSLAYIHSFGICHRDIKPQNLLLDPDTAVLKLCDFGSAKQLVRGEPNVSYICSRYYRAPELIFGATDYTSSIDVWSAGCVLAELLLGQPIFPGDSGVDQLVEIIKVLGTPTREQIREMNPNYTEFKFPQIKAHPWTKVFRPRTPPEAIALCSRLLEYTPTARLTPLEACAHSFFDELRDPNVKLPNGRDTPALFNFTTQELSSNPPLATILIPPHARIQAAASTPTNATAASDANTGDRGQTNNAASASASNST
T6 sequence (P22607 23-806, species assumed): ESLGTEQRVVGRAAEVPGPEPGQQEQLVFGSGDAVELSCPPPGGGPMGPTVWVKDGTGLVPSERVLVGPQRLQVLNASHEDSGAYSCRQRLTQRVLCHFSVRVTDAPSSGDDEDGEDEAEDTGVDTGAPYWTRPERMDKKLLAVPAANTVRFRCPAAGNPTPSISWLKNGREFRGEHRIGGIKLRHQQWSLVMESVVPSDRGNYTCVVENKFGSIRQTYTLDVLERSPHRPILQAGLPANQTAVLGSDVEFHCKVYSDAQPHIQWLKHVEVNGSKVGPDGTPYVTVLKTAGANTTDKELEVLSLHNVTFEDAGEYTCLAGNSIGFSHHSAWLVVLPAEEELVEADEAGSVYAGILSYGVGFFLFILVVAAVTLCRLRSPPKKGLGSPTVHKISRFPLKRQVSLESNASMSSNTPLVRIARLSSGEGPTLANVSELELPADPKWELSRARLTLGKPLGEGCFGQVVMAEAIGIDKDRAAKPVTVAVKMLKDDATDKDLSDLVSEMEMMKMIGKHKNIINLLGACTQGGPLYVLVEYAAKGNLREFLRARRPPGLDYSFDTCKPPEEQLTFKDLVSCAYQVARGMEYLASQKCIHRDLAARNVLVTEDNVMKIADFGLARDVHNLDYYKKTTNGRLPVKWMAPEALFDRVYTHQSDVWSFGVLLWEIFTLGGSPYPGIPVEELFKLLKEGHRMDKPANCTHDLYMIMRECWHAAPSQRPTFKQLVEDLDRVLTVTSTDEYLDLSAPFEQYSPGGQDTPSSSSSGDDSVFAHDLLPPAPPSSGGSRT
T9 sequence (P28482 whole entry, species assumed): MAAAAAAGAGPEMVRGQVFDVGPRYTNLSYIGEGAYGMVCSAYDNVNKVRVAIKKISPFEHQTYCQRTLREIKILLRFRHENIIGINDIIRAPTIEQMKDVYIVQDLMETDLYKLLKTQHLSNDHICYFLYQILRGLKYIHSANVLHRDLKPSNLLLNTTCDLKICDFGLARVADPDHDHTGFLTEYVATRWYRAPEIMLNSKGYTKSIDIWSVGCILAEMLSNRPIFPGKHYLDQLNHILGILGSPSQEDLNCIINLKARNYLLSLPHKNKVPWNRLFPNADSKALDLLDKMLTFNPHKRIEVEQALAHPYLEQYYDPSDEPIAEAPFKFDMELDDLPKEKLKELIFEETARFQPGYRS

Compound: CN(C)CCOc1ccc(/C(=C(/CCCO)c2ccccc2)c2ccc(O)cc2)cc1 [GSK5182]
- ΔTm at 20 µM (BRPF1): -1.74 °C
- ΔTm at 20 µM (CSNK1D): -0.68 °C
- Necrosis induction [NI] (HEK293T cells [1]; 10 µM): 0.56 and 0.11 and 0.30 and 0.25
- ΔTm at 20 µM (CDK2): 0.68 °C
- Growth rate [GR] (HEK293T cells [2]; 10 µM): 0.52 and 3.08 and 0.59 and 0.82 and 0.68 and 0.29 and 0.42 and 1.20 and 1.31 and 8.43
- ΔTm at 20 µM (TRIM24): -0.25 °C
- ΔTm at 20 µM (ABL1): 0.43 °C
- ATF6 activity (tunicamycin-induced endoplasmic reticulum stress) ([3]; Hela ATF6 reporter cells, tunicamycin 100 ng/mL, 18 h, compounds at recommended concentrations, n = 5): lacked this effect
- activity at 10 µM ([3]; Homo sapiens, HeLa, 10 µM, single replicates n=1 to n=5, read-out: ER stress [rel. ATF6 activity]): 88%
- ΔTm at 20 µM (FGFR3): 0.62 °C
- ΔTm at 20 µM (BRD4): -2.92 °C
- ΔTm at 20 µM (AURKA): -0.17 °C
- ΔTm at 20 µM (MAPK1): 0.14 °C
- Apoptosis induction [AI] (HEK293T cells [4]; 10 µM): 0.95 and 1.15 and 0.71 and 1.22 (2×) and 1.40
- ΔTm at 20 µM (GSK3B): -1.96 °C
- Mean NFκB response ([5]; 10 µM, 1,5 h): 4124.00 GFP+-cells/confluence ∙ 1000
- Mean NFκB response ([5]; 10 µM, 4,5 h): 4518.85 GFP+-cells/confluence ∙ 1000
- Mean NFκB response ([5]; 10 µM, 7,5 h): 8291.63 GFP+-cells/confluence ∙ 1000
- Mean NFκB response ([5]; 10 µM, 10,5 h): 18033.90 GFP+-cells/confluence ∙ 1000
- Mean NFκB response ([5]; 10 µM, 13,5 h): 26386.99 GFP+-cells/confluence ∙ 1000
- Mean NFκB response ([5]; 10 µM, 16,6 h): 32458.21 GFP+-cells/confluence ∙ 1000
- Mean NFκB response ([5]; 10 µM, 19,5 h): 36483.54 GFP+-cells/confluence ∙ 1000
- Mean NFκB response ([5]; 10 µM, 22,5 h): 40081.60 GFP+-cells/confluence ∙ 1000
- Mean NFκB response ([5]; 10 µM, 3 h): 4121.32 GFP+-cells/confluence ∙ 1000
- Mean NFκB response ([5]; 10 µM, 6 h): 5330.81 GFP+-cells/confluence ∙ 1000
- Mean NFκB response ([5]; 10 µM, 9 h): 13339.51 GFP+-cells/confluence ∙ 1000
- Mean NFκB response ([5]; 10 µM, 12 h): 22208.27 GFP+-cells/confluence ∙ 1000
- Mean NFκB response ([5]; 10 µM, 15 h): 29794.15 GFP+-cells/confluence ∙ 1000
- Mean NFκB response ([5]; 10 µM, 18 h): 34711.23 GFP+-cells/confluence ∙ 1000
- Mean NFκB response ([5]; 10 µM, 21 h): 38030.00 GFP+-cells/confluence ∙ 1000
- Mean NFκB response ([5]; 10 µM, 24 h): 41021.29 GFP+-cells/confluence ∙ 1000
- Metabolic activity [MA] (HEK293T cells [6]; 10 µM): 0.99 and 0.91 (2×) and 0.85 and 1.04 and 1.01 and 0.95 and 0.93

Compound: O=C(/C=C/c1ccc(O)cc1)c1ccc(O)cc1O [Isoliquiritigenin]
- ΔTm at 20 µM (BRPF1): 0.82 °C
- ΔTm at 20 µM (CSNK1D): 1.31 °C
- Necrosis induction [NI] (HEK293T cells [1]; 1 µM): 0.85 and 0.80 and 0.45 and 1.05
- ΔTm at 20 µM (CDK2): 1.64 °C
- Growth rate [GR] (HEK293T cells [2]; 1 µM): 0.68 and 1.38 and 0.82 and 1.00 and 0.76 and 0.96 and 1.05 and 0.37 and 0.91 and 1.86
- ΔTm at 20 µM (TRIM24): -0.0317 °C
- ΔTm at 20 µM (ABL1): 6.6 °C
- activity at 1 µM ([3]; Homo sapiens, HeLa, 1 µM, single replicates n=1 to n=5, read-out: ER stress [rel. ATF6 activity]): 96%
- ΔTm at 20 µM (FGFR3): 1.26 °C
- ΔTm at 20 µM (BRD4): 1.51 °C
- ΔTm at 20 µM (AURKA): 1.81 °C
- ΔTm at 20 µM (MAPK1): 1.33 °C
- Apoptosis induction [AI] (HEK293T cells [4]; 1 µM): 0.29 and 1.26 and 0.88 and 1.02 and 0.64 and 1.54
- ΔTm at 20 µM (GSK3B): 2.87 °C
- Mean NFκB response ([5]; 1 µM, 1,5 h): 3578.42 GFP+-cells/confluence ∙ 1000
- Mean NFκB response ([5]; 1 µM, 4,5 h): 4286.96 GFP+-cells/confluence ∙ 1000
- Mean NFκB response ([5]; 1 µM, 7,5 h): 9277.37 GFP+-cells/confluence ∙ 1000
- Mean NFκB response ([5]; 1 µM, 10,5 h): 19586.05 GFP+-cells/confluence ∙ 1000
- Mean NFκB response ([5]; 1 µM, 13,5 h): 28313.33 GFP+-cells/confluence ∙ 1000
- Mean NFκB response ([5]; 1 µM, 16,6 h): 34970.00 GFP+-cells/confluence ∙ 1000
- Mean NFκB response ([5]; 1 µM, 19,5 h): 39776.67 GFP+-cells/confluence ∙ 1000
- Mean NFκB response ([5]; 1 µM, 22,5 h): 43150.00 GFP+-cells/confluence ∙ 1000
- Mean NFκB response ([5]; 1 µM, 3 h): 3834.99 GFP+-cells/confluence ∙ 1000
- Mean NFκB response ([5]; 1 µM, 6 h): 5800.94 GFP+-cells/confluence ∙ 1000
- Mean NFκB response ([5]; 1 µM, 9 h): 14742.34 GFP+-cells/confluence ∙ 1000
- Mean NFκB response ([5]; 1 µM, 12 h): 24113.33 GFP+-cells/confluence ∙ 1000
- Mean NFκB response ([5]; 1 µM, 15 h): 32050.00 GFP+-cells/confluence ∙ 1000
- Mean NFκB response ([5]; 1 µM, 18 h): 37423.33 GFP+-cells/confluence ∙ 1000
- Mean NFκB response ([5]; 1 µM, 21 h): 41230.00 GFP+-cells/confluence ∙ 1000
- Mean NFκB response ([5]; 1 µM, 24 h): 44476.67 GFP+-cells/confluence ∙ 1000
- Metabolic activity [MA] (HEK293T cells [6]; 1 µM): 1.06 and 1.13 and 1.02 (2×) and 1.07 and 1.01 and 1.10 and 1.11
